Details of data set [1]: species or system patients (human). The note with it: human, in vivo. From the text:
The pharmacovigilance data that were collected, reviewed and analyzed provided the following information in respect of the incidence of NMS. To date, a total of 3 cases (two adult and one pediatric) fulfill the criteria of potential neuroleptic malignant syndrome. These cases were reviewed in detail for evaluation of possible safety signals. They were all deemed serious, and in all cases, the patients recovered with appropriate treatment.
Cases ZONI000813 and ZONI000929 are adult cases from Japan. In both cases the patients carried a diagnosis of Parkinson's disease (PD) and were enrolled in a double blind, placebo controlled […] study of zonisamide as a potential treatment for PD (Protocol AD810N-202-1). […]
Estimates of exposure, based upon retail and mail order prescriptions, indicate that the number of unique patients taking zonisamide capsules in the U.S. is about 37,276 (total prescriptions per year/average number of prescriptions per patient per year less a calculated percentage decrease based on estimated annual dropouts) in the time between approval in 2000 and December 2002 . […] Similarly, the incidences of NMS estimated herein are unlikely to be higher than calculated. Based on the exposure data and number of NMS cases, the incidence of NMS in the U.S. and Japan is calculated to be about 1:37,276 unique patients and 1:592,588 unique patients, respectively.

Data set [2] concerns sodium channels. The note with it: in vitro; cited from earlier work.
Data set [3] concerns T-type Ca^2+ currents. The note with it: in vitro; cited from earlier work.
Data set [4] has as its system GABA/benzodiazepine receptor ionophore complex. The note with it: in vitro; does not produce changes in chloride flux; cited from earlier work.
Data set [5] deals with cultured mouse spinal cord neurons. The note with it: 10-30 μg/mL, cited from earlier work.
Data set [6] concerns rat hippocampal slices. The note with it: 10-30 μg/mL; cited from earlier work.
Data set [7] relates to dopaminergic and serotonergic neurotransmission. The note with it: in vivo microdialysis; cited from earlier work.
For data set [8] the following is noted: upon reaching a stable dose or following dosage adjustment; cited from earlier work.
The test system of data set [9] is carbonic anhydrase. The note with it: relative to acetazolamide; cited from earlier work.

SMILES strings stand for the structures.

Regarding `NS(=O)(=O)Cc1noc2ccccc12` [zonisamide, 1,2-benzisoxazole-3-methanesulfonamide], in data set [1], the “cases fulfilling the criteria of potential neuroleptic malignant syndrome” value was 3 cases and the “incidence of NMS” value is recorded as “about 1:37,276 unique patients”. Moreover, the “effect on sodium channels” value in data set [2] is on record as “blocks sodium channels”. The “effect on T-type Ca2+ currents” value in [3] is recorded as “reduces voltage-dependent, transient inward currents”. Moreover, the “binding to GABA/benzodiazepine receptor ionophore complex” value in data set [4] was “binds to the GABA/benzodiazepine receptor ionophore complex in an allosteric fashion”. Further, the “postsynaptic GABA or glutamate responses” value in data set [5] (cultured mouse spinal cord neurons) is given as “without affecting”. Also, the synaptically-driven electrical activity in data set [5] was “suppresses synaptically-driven electrical activity”. The “neuronal or glial uptake of [3H]-GABA” value in [6] was “without affecting”. The effect on neurotransmission result in data set [7] was “facilitates both dopaminergic and serotonergic neurotransmission”. Moreover, the “time required to achieve steady-state levels” value in [8] is reported as “up to two weeks”. Moreover, in [9], the “carbonic anhydrase inhibition compared to acetazolamide” value was 1/50.

Values taken from US20050154033A1, “Methods of using zonisamide as an adjunctive therapy for partial seizures” (Eisai Co., Ltd, priority 2004, published 2005).
